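Step 1: Grow cells in 96-well plates. Step 2: Expose to compound for 48 hours at 5 concentrations. Step 3: Interpolate endpoints linearly; if unreached, use highest concentration. TGI is the concentration that stops growth completely.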
Columns and labels:
Experiment in all cases: inhibition of tumour cell growth, NCI panel, 48 h
CAKI-1 renal = system: CAKI-1 renal
SNB-19 CNS = system: SNB-19 CNS
HCC-2998 colon = system: HCC-2998 colon
T-47D breast = system: T-47D breast
LOX IMVI melanoma = system: LOX IMVI melanoma
HOP-62 NSCLC = system: HOP-62 NSCLC
786-0 renal = system: 786-0 renal
SR leukemia = system: SR leukemia
SK-MEL-2 melanoma = system: SK-MEL-2 melanoma
HS 578T breast = system: HS 578T breast
SF-539 CNS = system: SF-539 CNS
COLO 205 colon = system: COLO 205 colon
SK-OV-3 ovarian = system: SK-OV-3 ovarian
RPMI-8226 leukemia = system: RPMI-8226 leukemia
OVCAR-3 ovarian = system: OVCAR-3 ovarian
HCT-15 colon = system: HCT-15 colon
BT-549 breast = system: BT-549 breast
TK-10 renal = system: TK-10 renal
NCI-H522 lung = system: NCI-H522 lung
DU-145 prostate = system: DU-145 prostate

**Q.** Which TGI (CAKI-1 renal) does the source give for `CC(C)(C)[Si](C)(C)O[C@@H](C(=O)OC1C=CCCC1)[C@@H](NC(=O)c1ccccc1)c1ccccc1` (stereo not given in full) here?
**A.** > 100 µM

**Q.** And the TGI (SNB-19 CNS)?
**A.** > 100 µM

**Q.** And the TGI (HCC-2998 colon)?
**A.** 44.4 µM

**Q.** And the TGI (T-47D breast)?
**A.** 98 µM

**Q.** What about the TGI (LOX IMVI melanoma) of the same compound?
**A.** 41.2 µM

**Q.** And the TGI (HOP-62 NSCLC)?
**A.** > 100 µM

**Q.** And the TGI (786-0 renal)?
**A.** > 100 µM

**Q.** What about the TGI (SR leukemia) of the same compound?
**A.** 37.9 µM

**Q.** And the TGI (SK-MEL-2 melanoma)?
**A.** 48.6 µM

**Q.** And the TGI (HS 578T breast)?
**A.** > 100 µM

**Q.** What about the TGI (SF-539 CNS) of the same compound?
**A.** > 100 µM

**Q.** What about the TGI (COLO 205 colon) of the same compound?
**A.** 76.8 µM

**Q.** And the TGI (SK-OV-3 ovarian)?
**A.** > 100 µM

**Q.** And the TGI (RPMI-8226 leukemia)?
**A.** 9.89 µM

**Q.** And the TGI (OVCAR-3 ovarian)?
**A.** > 100 µM

**Q.** What about the TGI (HCT-15 colon) of the same compound?
**A.** > 100 µM

**Q.** What about the TGI (BT-549 breast) of the same compound?
**A.** > 100 µM

**Q.** And the TGI (TK-10 renal)?
**A.** > 100 µM

**Q.** What about the TGI (NCI-H522 lung) of the same compound?
**A.** 63.6 µM

**Q.** And the TGI (DU-145 prostate)?
**A.** > 100 µM

**Q.** With `Nc1nc(Cl)c(N)c(NCC2(CO)CCC2)n1` as the compound, how does the TGI (CAKI-1 renal) read?
**A.** > 100 µM

**Q.** What about the TGI (SNB-19 CNS) of the same compound?
**A.** > 100 µM

**Q.** What about the TGI (HCC-2998 colon) of the same compound?
**A.** > 100 µM

**Q.** What about the TGI (T-47D breast) of the same compound?
**A.** > 100 µM

**Q.** What about the TGI (LOX IMVI melanoma) of the same compound?
**A.** > 100 µM

**Q.** And the TGI (HOP-62 NSCLC)?
**A.** > 100 µM

**Q.** What about the TGI (786-0 renal) of the same compound?
**A.** > 100 µM

**Q.** And the TGI (SR leukemia)?
**A.** > 100 µM

**Q.** And the TGI (SK-MEL-2 melanoma)?
**A.** > 100 µM

**Q.** What about the TGI (HS 578T breast) of the same compound?
**A.** > 100 µM

**Q.** And the TGI (SF-539 CNS)?
**A.** > 100 µM

**Q.** And the TGI (COLO 205 colon)?
**A.** > 100 µM

**Q.** What about the TGI (SK-OV-3 ovarian) of the same compound?
**A.** > 100 µM

**Q.** And the TGI (RPMI-8226 leukemia)?
**A.** > 100 µM

**Q.** And the TGI (OVCAR-3 ovarian)?
**A.** > 100 µM

**Q.** And the TGI (HCT-15 colon)?
**A.** > 100 µM

**Q.** And the TGI (BT-549 breast)?
**A.** > 100 µM

**Q.** And the TGI (TK-10 renal)?
**A.** > 100 µM

**Q.** What about the TGI (NCI-H522 lung) of the same compound?
**A.** > 100 µM

**Q.** What about the TGI (DU-145 prostate) of the same compound?
**A.** > 100 µM

**Q.** `C=C1C(=O)C23CC1C[C@H](OC(C)=O)[C@H]2C1(C)C(OC(C)=O)C[C@H](O)C(C)(C)[C@H]1C(=O)[C@@H]3OC(C)=O` (stereo not given in full) was tested. Which TGI (CAKI-1 renal) did it give?
**A.** 8.17 µM

**Q.** What about the TGI (SNB-19 CNS) of the same compound?
**A.** 34.6 µM

**Q.** And the TGI (HCC-2998 colon)?
**A.** 35.9 µM

**Q.** And the TGI (T-47D breast)?
**A.** 5.44 µM

**Q.** What about the TGI (LOX IMVI melanoma) of the same compound?
**A.** 10.3 µM

**Q.** What about the TGI (HOP-62 NSCLC) of the same compound?
**A.** 42.9 µM

**Q.** What about the TGI (786-0 renal) of the same compound?
**A.** 9.64 µM

**Q.** And the TGI (SR leukemia)?
**A.** > 24.7 µM

**Q.** What about the TGI (SK-MEL-2 melanoma) of the same compound?
**A.** 25.9 µM

**Q.** What about the TGI (HS 578T breast) of the same compound?
**A.** 15.3 µM

**Q.** And the TGI (SF-539 CNS)?
**A.** 6.47 µM

**Q.** What about the TGI (COLO 205 colon) of the same compound?
**A.** 4.8 µM

**Q.** And the TGI (SK-OV-3 ovarian)?
**A.** 32 µM

**Q.** And the TGI (RPMI-8226 leukemia)?
**A.** 4.81 µM

**Q.** And the TGI (OVCAR-3 ovarian)?
**A.** 12.7 µM

**Q.** What about the TGI (HCT-15 colon) of the same compound?
**A.** 11 µM

**Q.** And the TGI (BT-549 breast)?
**A.** 7.4 µM

**Q.** What about the TGI (TK-10 renal) of the same compound?
**A.** 5.82 µM

**Q.** And the TGI (NCI-H522 lung)?
**A.** 3.48 µM

**Q.** And the TGI (DU-145 prostate)?
**A.** 25.7 µM

**Q.** With `O=C(c1ccccc1)c1ccc2nc3n(c2c1)C(c1c(F)cccc1F)SC3` (stereo not given) as the compound, how does the TGI (CAKI-1 renal) read?
**A.** 44.4 µM

**Q.** What about the TGI (SNB-19 CNS) of the same compound?
**A.** > 100 µM

**Q.** What about the TGI (HCC-2998 colon) of the same compound?
**A.** > 52.5 µM

**Q.** What about the TGI (T-47D breast) of the same compound?
**A.** 33 µM

**Q.** And the TGI (LOX IMVI melanoma)?
**A.** 36.6 µM

**Q.** And the TGI (HOP-62 NSCLC)?
**A.** 52.2 µM

**Q.** And the TGI (786-0 renal)?
**A.** 47.8 µM

**Q.** And the TGI (SR leukemia)?
**A.** 9.4 µM

**Q.** And the TGI (SK-MEL-2 melanoma)?
**A.** 31.2 µM

**Q.** And the TGI (HS 578T breast)?
**A.** > 81 µM

**Q.** And the TGI (SF-539 CNS)?
**A.** > 47.8 µM

**Q.** And the TGI (COLO 205 colon)?
**A.** 21.7 µM

**Q.** And the TGI (SK-OV-3 ovarian)?
**A.** 26.7 µM

**Q.** What about the TGI (RPMI-8226 leukemia) of the same compound?
**A.** > 100 µM

**Q.** What about the TGI (OVCAR-3 ovarian) of the same compound?
**A.** 24.1 µM

**Q.** What about the TGI (HCT-15 colon) of the same compound?
**A.** > 59 µM

**Q.** And the TGI (BT-549 breast)?
**A.** > 100 µM

**Q.** What about the TGI (TK-10 renal) of the same compound?
**A.** > 100 µM

**Q.** What about the TGI (NCI-H522 lung) of the same compound?
**A.** 6.14 µM

**Q.** And the TGI (DU-145 prostate)?
**A.** > 74 µM

**Q.** `Cc1cc(C)nc(NS(=O)(=O)c2ccc(NNc3c4ccccc4nc4c(C(=O)Nc5ccc(S(=O)(=O)Nc6ncccn6)cc5)cccc34)cc2)n1` was tested. Which TGI (CAKI-1 renal) did it give?
**A.** > 100 µM

**Q.** And the TGI (SNB-19 CNS)?
**A.** > 100 µM

**Q.** What about the TGI (HCC-2998 colon) of the same compound?
**A.** 51.2 µM

**Q.** What about the TGI (T-47D breast) of the same compound?
**A.** 74.3 µM

**Q.** And the TGI (LOX IMVI melanoma)?
**A.** 45.1 µM

**Q.** And the TGI (HOP-62 NSCLC)?
**A.** > 100 µM

**Q.** What about the TGI (786-0 renal) of the same compound?
**A.** > 100 µM

**Q.** What about the TGI (SR leukemia) of the same compound?
**A.** 59 µM

**Q.** And the TGI (SK-MEL-2 melanoma)?
**A.** 43.6 µM

**Q.** What about the TGI (HS 578T breast) of the same compound?
**A.** > 100 µM

**Q.** And the TGI (SF-539 CNS)?
**A.** 69.4 µM

**Q.** What about the TGI (COLO 205 colon) of the same compound?
**A.** 54.3 µM

**Q.** And the TGI (SK-OV-3 ovarian)?
**A.** 89.9 µM

**Q.** What about the TGI (RPMI-8226 leukemia) of the same compound?
**A.** 76.8 µM

**Q.** What about the TGI (OVCAR-3 ovarian) of the same compound?
**A.** 42.2 µM

**Q.** What about the TGI (HCT-15 colon) of the same compound?
**A.** > 100 µM

**Q.** What about the TGI (BT-549 breast) of the same compound?
**A.** > 100 µM

**Q.** What about the TGI (TK-10 renal) of the same compound?
**A.** > 100 µM

**Q.** And the TGI (NCI-H522 lung)?
**A.** 48.9 µM

**Q.** What about the TGI (DU-145 prostate) of the same compound?
**A.** > 100 µM

**Q.** With `COc1ccc(OC)c2sc(N3C(=O)/C(=C/c4ccc(Cl)cc4)N=C3c3ccccc3)nc12` as the compound, how does the TGI (CAKI-1 renal) read?
**A.** > 100 µM

**Q.** What about the TGI (SNB-19 CNS) of the same compound?
**A.** > 100 µM

**Q.** And the TGI (HCC-2998 colon)?
**A.** > 100 µM

**Q.** And the TGI (T-47D breast)?
**A.** 78.5 µM

**Q.** What about the TGI (LOX IMVI melanoma) of the same compound?
**A.** > 100 µM

**Q.** And the TGI (HOP-62 NSCLC)?
**A.** > 100 µM

**Q.** What about the TGI (786-0 renal) of the same compound?
**A.** > 100 µM

**Q.** And the TGI (SR leukemia)?
**A.** > 100 µM

**Q.** And the TGI (SK-MEL-2 melanoma)?
**A.** > 100 µM

**Q.** What about the TGI (HS 578T breast) of the same compound?
**A.** > 100 µM

**Q.** And the TGI (SF-539 CNS)?
**A.** > 100 µM

**Q.** And the TGI (COLO 205 colon)?
**A.** > 100 µM

**Q.** What about the TGI (SK-OV-3 ovarian) of the same compound?
**A.** > 100 µM

**Q.** And the TGI (RPMI-8226 leukemia)?
**A.** > 100 µM

**Q.** What about the TGI (OVCAR-3 ovarian) of the same compound?
**A.** > 100 µM

**Q.** And the TGI (HCT-15 colon)?
**A.** > 100 µM

**Q.** What about the TGI (BT-549 breast) of the same compound?
**A.** > 100 µM

**Q.** What about the TGI (TK-10 renal) of the same compound?
**A.** > 100 µM

**Q.** And the TGI (NCI-H522 lung)?
**A.** > 100 µM

**Q.** And the TGI (DU-145 prostate)?
**A.** > 100 µM

Reference: PubChem BioAssay (NCI)
